Experimental findings from patent US11236055B2 (Venenum Biodesign, LLC, priority 2016, dated 2022) are described below.

Test [1] addresses T1, mouse TGR5 receptor (Mus musculus, UniProt Q80SS6).
T1 construct: expressed in transfected cells; host or cells: HEK293-EBNA (293 c18, ATCC CRL10852), Hygromycin B selection
T1 sequence (Q80SS6 1-329): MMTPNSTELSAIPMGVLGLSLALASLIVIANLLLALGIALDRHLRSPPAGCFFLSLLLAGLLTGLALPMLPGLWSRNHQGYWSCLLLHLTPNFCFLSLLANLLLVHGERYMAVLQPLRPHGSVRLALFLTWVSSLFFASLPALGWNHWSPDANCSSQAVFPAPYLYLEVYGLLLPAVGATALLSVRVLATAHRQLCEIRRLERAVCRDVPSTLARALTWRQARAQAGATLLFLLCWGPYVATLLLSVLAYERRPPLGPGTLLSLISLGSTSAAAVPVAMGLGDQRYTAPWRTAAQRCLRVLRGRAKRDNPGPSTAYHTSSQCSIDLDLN
In words: Mouse TGR5 cAMP production assay (HTRF, Cisbio cAMP HiRange). Type of test: cell-based. The note with it: HEK293-EBNA cells overexpressing mouse TGR5, HTRF cAMP HiRange; coded A-D. The text has this: Mouse TGR5 cAMP Production Assay
We evaluated compounds of the present invention for their ability to induce cAMP production in HEK-EBNA cells overexpressing the mouse TGR5 receptor. Human embryonic kidney cells (HEK293-EBNA) stably expressing mouse TGR5 receptor were established using the following procedure. Specifically, a commercially-obtained gene encoding mouse TGR5 (accession number BC116914) from Thermo Scientific (Waltham, Mass.) was cloned into an episomal expression vector. The resulting expression plasmid was then transfected into 293 c18 (ATCC® CRL10852™) cells, which express the Epstein-Barr virus nuclear antigen EBNA1 and can support the replication of episomal vectors. Selection for the plasmid was maintained with Hygromycin B. Cells were cultured and maintained in DMEM (Sigma; cat #6429) supplemented with 10% Fetal Bovine Serum, 1% penicillin/streptomycin, 2 mM L-alanine L-glutamine (GlutaMax), and 250 μg/mL Hygromycin.
2. HTRF cAMP Production Assay
In this second cAMP production assay, the cAMP production was measured in 384-well low volume plates (Greiner; cat #784075) using the Cisbio™ cAMP HiRange HTRF Assay Kit (Cisbio) according to the manufacturer's protocol.
Briefly, compounds were initially diluted in 100% DMSO (12-point serial dilution by half logs) in a 96-well plate and then were further diluted 1:50 in PBS containing 10 mM HEPES. 5 μL were transferred to the 384-well assay plate in duplicate. HEK293-EBNA cells stably overexpressing mouse TGR5 were harvested using non-enzymatic cell dissociation buffer (Sigma), spun down, then resuspended in serum-free DMEM with 500 μM IBMX at a density of 500,000 cells/mL. 5 μL of cell suspension was transferred to each well of the 384-well assay plate already containing compound. The plate was covered and incubated at room temperature for 1 hour. The d2-cAMP and anti-cAMP Ab-cryptate stock solutions were prepared as per kit instructions. Then 5 μL of each conjugate (d2 and cryptate) were added to each well of the assay plate. The plate was covered and incubated at room temperature for 1 hour. The plate was read on an Envision™ plate reader (Perkin Elmer).
(§1) In Table 33, EC50 values for both human and mouse cells were determined according to the TGR5 cAMP assays described above.

Test [2] has as its target T2, human TGR5 receptor (Homo sapiens, UniProt Q8TDU6).
T2 construct: host or cells: CHO-K1 (hTGR5-CHO cells)
T2 sequence (Q8TDU6 1-330): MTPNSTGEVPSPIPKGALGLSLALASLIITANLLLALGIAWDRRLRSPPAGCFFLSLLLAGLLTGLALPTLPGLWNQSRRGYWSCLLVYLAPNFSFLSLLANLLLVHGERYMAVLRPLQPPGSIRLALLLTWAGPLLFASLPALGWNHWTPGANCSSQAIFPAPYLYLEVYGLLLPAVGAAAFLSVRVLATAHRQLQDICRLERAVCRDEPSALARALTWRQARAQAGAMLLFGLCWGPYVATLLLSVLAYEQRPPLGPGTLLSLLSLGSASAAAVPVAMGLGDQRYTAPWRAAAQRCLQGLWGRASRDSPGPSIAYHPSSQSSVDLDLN
The test can be described thus: Human TGR5 cAMP production assay. The note with it: human TGR5, luminescent cAMP assay; coded A-D; read-out: Human TGR5 Lum. cAMP Activity (EC50). In kind it is cell-based. The method, then:
Human TGR5 cAMP Production Assay
We evaluated the Compounds of the present invention for their ability to induce cAMP production using CHO-K1 cells overexpressing the human TGR5 receptor. CHO-K1 cells stably expressing human TGR5 receptor (accession number NM_001077194.1 (hTGR5) (i.e., hTGR5-CHO cells) were purchased from DiscoveRx Corporation (Fremont, Calif.). hTGR5-CHO cells were grown in Ham's F-12 media supplemented with 10% Fetal Bovine Serum, 1% Penicillin-Streptomycin, 2 mM L-Alanine L-Glutamine (Glutamax), and 800 μg/mL Geneticin selection. The cAMP production assay was performed using DiscoveRx's cAMP XS+ kit (Catalog No. 90-0075XL) following the manufacturer's recommended protocol. Briefly, hTGR5-CHO cells were harvested using non-enzymatic cell dissociation buffer (Sigma-Aldrich, St. Louis, Mo.) and 1×10^6 cells were combined in Phosphate-Buffered Saline (PBS) to a final volume of 496 μL to which 4 μL of 125 mM IBMX (Sigma-Aldrich, St. Louis, Mo.) was added. 500 μL of cAMP antibody solution was added to the harvested cells and incubated at room temperature for 20 min.
Test compounds were serially diluted (half-log dilutions) in DMSO and then further diluted 1:50 in PBS, 10 mM HEPES buffer. 2 μL of serially diluted compound was added to a 384-well low volume plate (Greiner; cat #784075) and centrifuged briefly. 2 μL of the cell/cAMP antibody mixture was then added to each compound-containing well and allowed to incubate at room temperature for one hour. Following incubation, the XS+ kits' ED/Lysis/CL Substrate Working Solution was prepared following the manufacturer's recommended protocol and 4 μL was added to each well of the plate. The plate was then incubated for one hour at room temperature. Following incubation, 4 μL of Enzyme Acceptor reagent was added to the plate and allowed to incubate overnight at room temperature. Luminescent signal was then detected using the Viewlux instrument (Perkin-Elmer, Waltham, Mass.).
as §1

pEC50: −log10 of the molar value. Structures can show the parent of a compound that is named as a salt. Bounds are passed on as bounds.

Take `Cc1cnccc1-c1cccc([C@H](C)N(CCCC(=O)N2CCC[C@H]2C(=O)O)S(=O)(=O)c2cccc(Cl)c2C)c1` [Compound 21AJ, (S)-1-(4-(3-chloro-2-methyl-N-((S)-1-(3-(3-methylpyridin-4-yl)phenyl)ethyl)phenylsulfonamido)butanoyl)pyrrolidine-2-carboxylic acid]: the pEC50 in test [1] was 6.00 to 7.00; in test [2], above 7.00.

Turning to `COc1cnccc1-c1cccc(C2CN(C(=O)CCC(=O)O)CCN2S(=O)(=O)c2cccc(Cl)c2C)c1` (stereo not drawn) [Compound 46AH, 4-(4-((3-chloro-2-methylphenyl)sulfonyl)-3-(3-(3-methoxypyridin-4-yl)phenyl)piperazin-1-yl)-4-oxobutanoic acid], the values for the pEC50 in test [1] and in test [2] were above 7.00 and 6.00 to 7.00, respectively.

For the compound `Cc1cnccc1-c1cccc(C(C)(C)N(CCCNS(=O)(=O)CCNC(=N)N)S(=O)(=O)c2cccc(Cl)c2C)c1` [Compound 27AC, 3-chloro-N-(3-((2-guanidinoethyl)sulfonamido)propyl)-2-methyl-N-(2-(3-(3-methylpyridin-4-yl)phenyl)propan-2-yl)benzenesulfonamide], the pEC50 in test [1] is 6.00 to 7.00; in test [2], above 7.00.

`Cc1cnccc1-c1cccc(CCN(CCCC(=O)NCCS(=O)(=O)O)S(=O)(=O)c2cccc(Cl)c2C)c1` [Compound 20BT, 2-(4-(3-chloro-2-methyl-N-(3-(3-methylpyridin-4-yl)phenethyl)phenylsulfonamido)butanamido)ethanesulfonic acid]: the results for the pEC50 in test [1] and in test [2] were 4.52 to 6.00 and 6.00 to 7.00, respectively.

Regarding `Cc1cnccc1-c1cccc(C(C)(C)NS(=O)(=O)c2ccccc2[N+](=O)[O-])c1` [Compound 5AP, N-(2-(3-(3-methylpyridin-4-yl)phenyl)propan-2-yl)-2-nitrobenzenesulfonamide], the results for the negative logarithm of the EC50 (pEC50) in test [1] and in test [2] were 6.00 to 7.00 and above 7.00, respectively.

As to `Cc1cnccc1-c1cccc([C@H](C)N(CCCC(=O)NCCS(=O)(=O)NCC(=O)O)S(=O)(=O)c2ccccc2C)c1` [Compound 20AX, (S)-2-(4-(2-methyl-N-(1-(3-(3-methylpyridin-4-yl)phenyl)ethyl)phenylsulfonamido)butanamidoethylsulfonamido)acetate], the pEC50 in test [1] was 6.00 to 7.00; in test [2], above 7.00.

On to `Cc1cnccc1-c1cccc(C2CN(C(=O)CCC(=O)O)CCN2S(=O)(=O)c2cccc(Cl)c2C)c1` (stereo not drawn) [Compound 46AD, 4-(4-((3-chloro-2-methylphenyl)sulfonyl)-3-(3-(3-methylpyridin-4-yl)phenyl)piperazin-1-yl)-4-oxobutanoic acid], for which the figures for the negative logarithm of the EC50 (pEC50) in test [1] and in test [2] were above 7.00 and 6.00 to 7.00, respectively.

On to `CC(C)(NS(=O)(=O)c1cccc(C(F)(F)F)c1)c1cccc(-c2ccc3nccn3c2)c1` [Compound 5AF, N-(2-(3-(imidazo[1,2-a]pyridin-6-yl)phenyl)propan-2-yl)-3-(trifluoromethyl)benzenesulfonamide], for which the results for the pEC50 in test [1] and in test [2] were 4.52 to 6.00 and 6.00 to 7.00, respectively.

With `Cc1cnccc1-c1cccc(C2CN(C(=O)CCC(=O)O)CCN2S(=O)(=O)c2ccccc2C)c1` (stereo not drawn) [Compound 46AI, 4-(3-(3-(3-methylpyridin-4-yl)phenyl)-4-(o-tolylsulfonyl)piperazin-1-yl)-4-oxobutanoic acid], the results for the pEC50 in test [1] and in test [2] were above 7.00 and 6.00 to 7.00, respectively.

Regarding `Cc1cnccc1-c1cccc(C2CN(C(=O)CS(=O)(=O)O)CCN2S(=O)(=O)c2ccccc2C)c1` (stereo not drawn) [Compound 49AA, 2-(3-(3-(3-methylpyridin-4-yl)phenyl)-4-(o-tolylsulfonyl)piperazin-1-yl)-2-oxoethanesulfonic acid], the pEC50 in test [1] is above 7.00; in test [2] it was 6.00 to 7.00.

As to `COc1cnccc1-c1cccc(C2CCCN2S(=O)(=O)c2ccccc2C(F)(F)F)c1` (stereo not drawn) [Compound 40AA, 3-methoxy-4-(3-(1-((2-(trifluoromethyl)phenyl)sulfonyl)pyrrolidin-2-yl)phenyl)pyridine], the pEC50 was 4.52 to 6.00 in test [1] and above 7.00 in test [2].

With `Cc1cnccc1-c1cccc([C@H](C)N(CCCC(=O)O)S(=O)(=O)c2cccc(Cl)c2C)c1` [Compound 16], the pEC50 is above 7.00 in test [1] and 6.00 to 7.00 in test [2].

In the case of `CCc1cnccc1-c1cccc([C@H](C)N(CCCC(=O)NCCN)S(=O)(=O)c2cccc(Cl)c2C)c1` [Compound 21AS, (S)-N-(2-aminoethyl)-4-(3-chloro-N-(1-(3-(3-ethylpyridin-4-yl)phenyl)ethyl)-2-methylphenylsulfonamido)butanamide], the pEC50 is 6.00 to 7.00 in test [1] and above 7.00 in test [2].

For the compound `Cc1c(Cl)cccc1S(=O)(=O)N[C@@H](C)c1cccc(-c2ccnn2C)c1` [Compound 4, (S)-3-Chloro-2-methyl-N-(1-(3-(1-methyl-1H-pyrazol-5-yl)phenyl)ethyl)benzenesulfonamide], the negative-log EC50 (pEC50) in test [1] is 4.52 to 6.00; in test [2] it was 6.00 to 7.00.

For `CC(C)(NS(=O)(=O)c1ccccc1C(F)(F)F)c1cccc(-c2ccncc2CO)c1` [Compound 5AN, N-(2-(3-(3-(hydroxymethyl)pyridin-4-yl)phenyl)propan-2-yl)-2-(trifluoromethyl)benzenesulfonamide], the pEC50 in test [1] is 6.00 to 7.00; in test [2] it was above 7.00.

`Cc1cnccc1-c1cccc(C(CCCCC#N)NS(=O)(=O)c2cccc(Cl)c2C)c1` (stereo not drawn) [Compound 35, 3-chloro-N-(5-cyano-1-(3-(3-methylpyridin-4-yl)phenyl)pentyl)-2-methylbenzenesulfonamide]: the pEC50 in test [1] and in test [2] was 6.00 to 7.00 in each case.

For the compound `CCc1cnccc1-c1cccc(C2CN(C(=O)[C@@H](N)CS(=O)(=O)O)CCN2S(=O)(=O)c2cccc(Cl)c2C)c1` (mixture of isomers) [Compound 48, (2R)-2-amino-3-(4-((3-chloro-2-methylphenyl)sulfonyl)-3-(3-(3-ethylpyridin-4-yl)phenyl)piperazin-1-yl)-3-oxopropane-1-sulfonic acid hydrochloride], the pEC50 is above 7.00 in test [1] and 6.00 to 7.00 in test [2].

For the compound `Cc1cnccc1-c1cccc(C(C)N(CCCNc2c(NCCC(=O)O)c(=O)c2=O)S(=O)(=O)c2cccc(Cl)c2C)c1` (stereo not drawn) [Compound 32AB], the pEC50 in test [1] and in test [2] was 6.00 to 7.00 in each case.
